Reference: patent US7960606B2, “Mouse model of chronic heart failure and coronary atherosclerosis regression” (The J. David Gladstone Institutes, priority 2006, dated 2011)

Key:
SR-BI knockout females = conditions: administered during the breeding protocol; Miettinen et al. 2001; cited from earlier work
[1] = test system: Apoe^h/hSRB1^−/−Mx1-Cre mice; experiment: Survival of diet-induced heart attacks in Apoe^h/hSRB1^−/−Mx1-Cre mice after pI-pC injection and switch to low fat diet; format: in vivo
Source text: The animal model was created by breeding Apoe^h/hSRB1^−/− mice to mice that carry the inducible Mx1-Cre transgene, resulting in Apoe^h/hSRB1^−/−Mx1-Cre mice that are sensitive to diet-induced coronary atherosclerosis and develop fatal myocardial infarctions within 35 days of dietary challenge. However, this new strain of mice can survive its heart attacks if switched to a normal low fat diet and given a single intrapentoneal injection of polyinosinic polycytidylic ribonucleic acid (pI-pC). […] Surviving Apoe^h/hSRB1^−/−MX1-Cre mice can then live for many months. Upon histological analysis of their heart, there is evidence of myocardial infarction and ventricular enlargement. Consequently, the surviving Apoe^h/hSRB1^−/−Mx1-Cre mice are a unique murine model of chronic heart failure that simulates chronic heart failure in humans who survive heart attacks caused by coronary atherosclerosis.
10 Apoe^h/hSRB1^−/−Mx1-Cre mice were fed a high cholesterol diet for 30 days. On day 31, they were injected with pI-pC, and then switched to a low fat diet. Of the 10 mice, 6 survived for two months. At that time point, their hearts were harvested and heart function was assessed in 4 of the 6 mice by Langendorf hemodynamic measurements.

Compound: CC(C)(Sc1cc(C(C)(C)C)c(O)c(C(C)(C)C)c1)Sc1cc(C(C)(C)C)c(O)c(C(C)(C)C)c1 [probucol]
- fertility in the SR-BI knockout females (SR-BI knockout females): restore fertility

Compound: polyinosinic polycytidylic ribonucleic acid [pI-pC]
- mice surviving for two months (of 10) ([1]; high cholesterol diet for 30 days, pI-pC injected on day 31, then low fat diet, 10 mice): 6
- blood cholesterol levels ([1]; single intraperitoneal injection, activates Mx1-Cre gene, restores normal Arg-61 apoE levels in blood): rapidly and permanently lowers blood cholesterol levels in a few days
